This passage reports IC50 results from patent US20230159453A1 (COCRYSTAL PHARMA, INC., priority 2020, published 2023).

For the assay, the target named is SARS2 protease (Severe acute respiratory syndrome coronavirus 2, UniProt P0DTD1). The assay is described as follows: SARS-CoV-2 protease inhibition assay (SARS2 FRET protease assay). The note with it: SARS-CoV-2 protease 25 nM, FRET, peptide substrate 1.3 μM, 30 minutes at 30° C., compounds 20 μM to 1.0 nM; read-out: IC50. The format is biochemical.

For orientation: IC50 means the midpoint of a concentration-inhibition curve. Regarding `O=C(N[C@@H](CC1CCCCC1)C(=O)N[C@@H](C[C@@H]1CCNC1=O)C(=O)C(=O)NC1CC1)O[C@@H]1CCC[C@@H]1Cc1cccc(Cl)c1` [Compound C265], the 50% inhibitory concentration (IC50) is 840 nM.

With `CC(C)C[C@H](NC(=O)OC(c1cccc(Cl)c1)C(F)(F)c1cccc(Cl)c1)C(=O)N[C@H](C=O)C[C@@H]1CCNC1=O` (some centres unmarked) [Compound C266], the IC50 is 20 nM.

For `CCCCC[C@H](NC(=O)OC(c1ccccc1)C(C)(C)c1cccc(Cl)c1)C(=O)N[C@H](C=O)C[C@@H]1CCNC1=O` (some centres unmarked) [Compound C267], the IC50 is 100 nM.

As to `CC(C)C[C@H](NC(=O)O[C@@H](c1cccc(F)c1)C(C)(C)c1cccc(Cl)c1)C(=O)N[C@H](C=O)C[C@@H]1CCNC1=O` [Compound C268], the 50% inhibitory concentration (IC50) was 20 nM.

In the case of `CC(C)C[C@H](NC(=O)O[C@H](c1cccc(F)c1)C(C)(C)c1cccc(Cl)c1)C(=O)N[C@H](C=O)C[C@@H]1CCNC1=O` [Compound C269], the IC50 was 70 nM.

Consider `CC(C)C[C@H](NC(=O)OC(c1ccccc1)C(C)(C)c1cccc(Cl)c1)C(=O)N[C@@H](C[C@@H]1CCNC1=O)C(=O)C(=O)N1CCCCC1` (some centres unmarked) [Compound C270], for which the 50% inhibitory concentration (IC50) was determined as 4410 nM.

For `CCOCCNC(=O)C(=O)[C@H](C[C@@H]1CCNC1=O)NC(=O)[C@H](CC1CCCCC1)NC(=O)OC(c1ccccc1)C(C)(C)c1cccc(Cl)c1` (some centres unmarked) [Compound C271], the half-maximal inhibitory concentration (IC50) turned out to be 2000 nM.

As for `O=C[C@H](C[C@@H]1CCNC1=O)NC(=O)[C@H](CC1CCCCC1)NC(=O)OC(Cc1cccc(Cl)c1)c1cccc(Cl)c1` (stereo partly drawn) [Compound C272, 1,2-Bis(3-chlorophenyl)ethyl ((S)-3-cyclohexyl-1-oxo-1-(((S)-1-oxo-3-((S)-2-oxopyrrolidin-3-yl)propan-2-yl)amino)propan-2-yl)carbamate], the IC50 stood at 320 nM.

As for `CC(C)(c1cccc(Cl)c1)C(OC(=O)N[C@@H](CC1CCCCC1)C(=O)N[C@@H](C[C@@H]1CCNC1=O)C(=O)CO)c1ccccc1` (some centres unmarked) [Compound C273], the IC50 was 5350 nM.

Take `CC(C)C[C@H](NC(=O)OC(c1ccccc1)C(C)(C)c1cccc(Cl)c1)C(=O)N[C@@H](C[C@@H]1CCNC1=O)C(=O)C(=O)N1CCNCC1` (some centres unmarked) [Compound C274]: the half-maximal inhibitory concentration (IC50) came out at 12000 nM.

For the compound `CC(C)C[C@H](NC(=O)O[C@@H](c1ccccc1)C(C)(C)c1cccc(Cl)c1)C(=O)N[C@H](C=O)C[C@@H]1CCNC1=O` [Compound C275], the 50% inhibitory concentration (IC50) turned out to be 20 nM.

Turning to `CC(C)C[C@H](NC(=O)O[C@H](c1ccccc1)C(C)(C)c1cccc(Cl)c1)C(=O)N[C@H](C=O)C[C@@H]1CCNC1=O` [Compound C276], the half-inhibitory concentration (IC50) amounted to 60 nM.

With `CC(C)C[C@H](NC(=O)OC(c1ccccc1)C1(c2cccc(Cl)c2)CCC1)C(=O)N[C@H](C=O)C[C@@H]1CCNC1=O` (some centres unmarked) [Compound C277], the IC50 stood at 710 nM.

As for `CC(C)C[C@H](NC(=O)OC(c1ccccc1)C1(c2cccc(Cl)c2)CCCC1)C(=O)N[C@H](C=O)C[C@@H]1CCNC1=O` (some centres unmarked) [Compound C278], the concentration for half-maximal inhibition (IC50) turned out to be 20 nM.

With `CC(C)C[C@H](NC(=O)OC(c1ccccc1)C(F)(F)c1cccc(Cl)c1)C(=O)N[C@@H](C[C@@H]1CCNC1=O)C(=O)CO` (some centres unmarked) [Compound C279], the IC50 amounted to 6590 nM.

As to `CC(C)C[C@H](NC(=O)OC(Cc1ccccc1)c1ccccc1)C(=O)N[C@@H](C[C@@H]1CCNC1=O)C(=O)C(=O)N1CCN(C(=O)OC(C)(C)C)CC1` (some centres unmarked) [Compound C280], the IC50 was more than 20000 nM.

`CC1(C)CC(CC(NC(=O)[C@H](CC2CCCCC2)NC(=O)OC(c2cccc(Cl)c2)C(C)(C)c2cccc(Cl)c2)C(=O)C(=O)NC2CC2)C(=O)N1` (some centres unmarked) [Compound C281]: the IC50 was found to be 2480 nM.

`CC(C)C[C@H](NC(=O)OC(Cc1cccc(Cl)c1)c1cccc(Cl)c1)C(=O)N[C@H](C=O)C[C@@H]1CCNC1=O` (stereo partly drawn) [Compound C282, 1,2-Bis(3-chlorophenyl)ethyl ((S)-4-methyl-1-oxo-1-(((S)-1-oxo-3-((S)-2-oxopyrrolidin-3-yl)propan-2-yl)amino)pentan-2-yl)carbamate]: the IC50 turned out to be 40 nM.

`CC(C)C[C@H](NC(=O)OC(Cc1ccccc1)c1ccccc1)C(=O)N[C@@H](C[C@@H]1CCNC1=O)C(=O)C(=O)N1CCNCC1` (some centres unmarked) [Compound C283]: the IC50 was more than 20000 nM.

Regarding `CC(C)(c1cccc(Cl)c1)C(OC(=O)N[C@@H](Cc1ccccc1)C(=O)N[C@@H](C[C@@H]1CCNC1=O)C(=O)C(=O)NC1CC1)c1ccccc1` (some centres unmarked) [Compound C284], the IC50 is 1570 nM.

As to `CC(C)C[C@H](NC(=O)O[C@@H](c1cccc(F)c1)C(C)(C)c1cccc(Cl)c1)C(=O)N[C@@H](C[C@@H]1CCNC1=O)C(=O)C(=O)NC1CC1` [Compound C285], the 50% inhibitory concentration (IC50) was determined as 80 nM.

Turning to `CC(C)C[C@H](NC(=O)OC(c1cccc(Cl)c1)C(C)(C)c1cccc(Cl)c1)C(=O)N[C@@H](C[C@@H]1CCNC1=O)C(=O)C(=O)NC1CC1` (some centres unmarked) [Compound C286], the IC50 is 70 nM.

As to `CCN1CCN(C(=O)C(=O)[C@H](C[C@@H]2CCNC2=O)NC(=O)[C@H](CC(C)C)NC(=O)OC(c2ccccc2)C(C)(C)c2cccc(Cl)c2)CC1` (some centres unmarked) [Compound C287], the half-maximal inhibitory concentration (IC50) was more than 20000 nM.

On to `CC1(C)CC(CC(NC(=O)[C@H](CC2CCCCC2)NC(=O)OC(c2cccc(Cl)c2)C(C)(C)c2cccc(Cl)c2)C(=O)C(N)=O)C(=O)N1` (some centres unmarked) [Compound C288], for which the concentration for half-maximal inhibition (IC50) stood at 2230 nM.

Consider `CCCCC[C@H](NC(=O)OC(c1ccccc1)C(C)(C)c1cccc(Cl)c1)C(=O)N[C@@H](C[C@@H]1CCNC1=O)C(=O)C(=O)NC1CC1` (some centres unmarked) [Compound C289], for which the half-inhibitory concentration (IC50) is 370 nM.

With `O=C(N[C@@H](CC1CCCCC1)C(=O)NC(CC1CC2(CCC2)NC1=O)C(=O)C(=O)NC1CC1)OCc1cccc(Cl)c1` (stereo partly drawn) [Compound C290, 3-Chlorobenzyl ((2S)-3-cyclohexyl-1-((4-(cyclopropylamino)-3,4-dioxo-1-(6-oxo-5-azaspiro[3.4]octan-7-yl)butan-2-yl)amino)-1-oxopropan-2-yl)carbamate], the IC50 is 508 nM.
